Test results reported in ChEMBL document CHEMBL1135843, “A library construction of 2,5-disubstituted pyrrole compounds by using solid/solution-phase syntheses” (Bioorg Med Chem Lett, 2002).

experiment: Compound was evaluated for its inhibition of LPS-induced mouse B-lymphocyte proliferation; assay type: functional

Row | Structure (SMILES) | IC50
1 | Cc1cc(C)c2oc(-c3ccc(-c4ccc(C(=O)O)cc4)[nH]3)cc2c1C | 2.2 nM

experiment: Inhibition of LPS-induced mouse B-lymphocyte proliferation in relation to IC50 of all-trans retinoic acid.; assay type: functional

Row | Structure (SMILES) | Relative IC50
2 | CCc1ccc(OC)c2cc(-c3ccc(-c4ccc(C(=O)O)o4)[nH]3)oc12 | >1000
3 | O=C(O)c1ccc2cc(-c3ccc(-c4cc5c(Cl)ccc(Cl)c5s4)[nH]3)ccc2c1 | >1000
4 | O=C(O)c1ccc(-c2ccc(-c3cc4cc(Cl)ccc4o3)[nH]2)s1 | >1000
5 | CCCc1ccc(OC)c2cc(-c3ccc(-c4ccc(C(=O)O)o4)[nH]3)oc12 | >1000
6 | Cc1cc(-c2ccc(-c3cc4cc(Cl)cc(Cl)c4o3)[nH]2)c(C)cc1C(=O)O | >1000
7 | O=C(O)c1ccc(-c2ccc(-c3cc4cc(Cl)ccc4o3)[nH]2)c2ccccc12 | >1000
8 | O=C(O)c1ccc(-c2ccc(-c3cc4c(Cl)ccc(Cl)c4s3)[nH]2)c2ccccc12 | >1000
9 | CCc1ccc(OC)c2cc(-c3ccc(-c4ccc(C(=O)O)s4)[nH]3)oc12 | >1000
10 | CCc1ccc(OC)c2cc(-c3ccc(-c4ccc(C(=O)O)c5ccccc45)[nH]3)oc12 | >1000
11 | Cc1ccc(Cl)c2sc(-c3ccc(-c4ccc(C(=O)O)c5ccccc45)[nH]3)cc12 | >1000
12 | Cc1ccc(Cl)c2oc(-c3ccc(-c4ccc5cc(C(=O)O)ccc5c4)[nH]3)cc12 | >1000
13 | CCCc1ccc(OC)c2cc(-c3ccc(-c4cc(C)c(C(=O)O)cc4C)[nH]3)oc12 | >1000
14 | CCCc1cccc2cc(-c3ccc(-c4ccc5cc(C(=O)O)ccc5c4)[nH]3)oc12 | >1000
15 | CCCc1ccc(OC)c2cc(-c3ccc(-c4ccc(C(=O)O)s4)[nH]3)oc12 | >1000
16 | Cc1ccc(C)c2oc(-c3ccc(-c4ccc(C(=O)O)c5ccccc45)[nH]3)cc12 | >1000
17 | CCc1ccc(OC)c2cc(-c3ccc(-c4cc(C)c(C(=O)O)cc4C)[nH]3)oc12 | >1000

Row | Structure (SMILES) | Relative IC50
18 | Cc1ccc(C)c2oc(-c3ccc(-c4ccc(C(=O)O)o4)[nH]3)cc12 | >1000
19 | O=C(O)c1ccc(-c2ccc(-c3cc4cc(Cl)ccc4o3)[nH]2)o1 | >1000
20 | Cc1ccc(C)c2oc(-c3ccc(-c4ccc5cc(C(=O)O)ccc5c4)[nH]3)cc12 | >1000
21 | Cc1cc(C)c2oc(-c3ccc(-c4ccc(C(=O)O)c5ccccc45)[nH]3)cc2c1C | >1000
22 | CCCc1cccc2cc(-c3ccc(-c4cc(C)c(C(=O)O)cc4C)[nH]3)oc12 | >1000
23 | O=C(O)c1cccc(-c2ccc(-c3cc4cccc(Cl)c4s3)[nH]2)c1 | >1000
24 | Cc1cc(-c2ccc(-c3cc4c(C)c(C)cc(C)c4o3)[nH]2)c(C)cc1C(=O)O | >1000
25 | CCCc1ccc(OC)c2cc(-c3ccc(-c4ccc(C(=O)O)c5ccccc45)[nH]3)oc12 | >1000
26 | CCCc1ccc(OC)c2cc(-c3ccc(-c4ccc5cc(C(=O)O)ccc5c4)[nH]3)oc12 | >1000
27 | CCc1ccc(OC)c2cc(-c3ccc(-c4ccc5cc(C(=O)O)ccc5c4)[nH]3)oc12 | >1000
28 | Cc1cc(C)c2oc(-c3ccc(-c4ccc5cc(C(=O)O)ccc5c4)[nH]3)cc2c1C | >1000
29 | CCCc1cccc2cc(-c3ccc(-c4ccc(C(=O)O)c5ccccc45)[nH]3)sc12 | >1000
30 | CCCc1cc(OC)cc2cc(-c3ccc(-c4cc(C)c(C(=O)O)cc4C)[nH]3)oc12 | >1000
31 | Cc1cc(-c2ccc(-c3cc4cc(Cl)ccc4o3)[nH]2)c(C)cc1C(=O)O | >1000
32 | Cc1cc(-c2ccc(-c3cc4c(C)ccc(C)c4o3)[nH]2)c(C)cc1C(=O)O | >1000
33 | Cc1cc(C)c2oc(-c3ccc(-c4ccc(C(=O)O)o4)[nH]3)cc2c1C | >1000

experiment: Inhibition of LPS-induced mouse B-lymphocyte proliferation. The result is expressed as relative IC50 i.e., IC50 of compound/all-trans retinoic acid IC50.; assay type: functional

Row | Structure (SMILES) | Relative IC50
34 | CCCc1cccc2cc(-c3ccc(-c4ccc(C(=O)O)s4)[nH]3)sc12 | 600
35 | Cc1ccc(C)c2oc(-c3ccc(-c4ccc(C(=O)O)cc4Br)[nH]3)cc12 | 18
36 | Cc1ccc(C)c2oc(-c3ccc(-c4ccc(C(=O)O)cc4F)[nH]3)cc12 | 15
37 | Cc1ccc(C)c2oc(-c3ccc(-c4cccc(C(=O)O)c4)[nH]3)cc12 | 2100
38 | COc1cc(C(=O)O)ccc1-c1ccc(-c2cc3c(Cl)ccc(Cl)c3o2)[nH]1 | 210
39 | O=C(O)c1ccc(-c2ccc(-c3cc4c(Cl)ccc(Cl)c4o3)[nH]2)c(Cl)c1 | 240
40 | O=C(O)c1ccc(-c2ccc(-c3cc4c(Cl)ccc(Cl)c4o3)[nH]2)c(Br)c1 | 45
41 | O=C(O)c1ccc(-c2ccc(-c3cc4ccc5ccccc5c4o3)[nH]2)c(Br)c1 | 1500
42 | Cc1ccc(C)c2oc(-c3ccc(-c4ccc(C(=O)O)s4)[nH]3)cc12 | 42
43 | CCc1ccc(OC)c2cc(-c3ccc(-c4ccc(C(=O)O)cc4Br)[nH]3)oc12 | 140
44 | Cc1cc(C)c2oc(-c3ccc(-c4ccc(C(=O)O)cc4Br)[nH]3)cc2c1C | 42
45 | Cc1ccc(Cl)c2sc(-c3ccc(-c4ccc(C(=O)O)s4)[nH]3)cc12 | 480
46 | Cc1ccc(Cl)c2oc(-c3ccc(-c4ccc(C(=O)O)cc4Br)[nH]3)cc12 | 16
47 | O=C(O)c1ccc(-c2ccc(-c3cc4cccc(Cl)c4o3)[nH]2)c(Cl)c1 | 300
48 | O=C(O)c1ccc(-c2ccc(-c3cc4c(Cl)ccc(Cl)c4o3)[nH]2)s1 | 62
49 | Cc1cc(C)c2oc(-c3ccc(-c4ccc(C(=O)O)s4)[nH]3)cc2c1C | 230
50 | O=C(O)c1ccc(-c2ccc(-c3cc4cccc(Cl)c4o3)[nH]2)c(F)c1 | 95
51 | COc1cc(C(=O)O)ccc1-c1ccc(-c2cc3cccc(Cl)c3o2)[nH]1 | 170
52 | O=C(O)c1ccc(-c2ccc(-c3cc4c(Cl)ccc(Cl)c4o3)[nH]2)c(F)c1 | 64
53 | O=C(O)c1ccc(-c2ccc(-c3cc4cccc(Cl)c4o3)[nH]2)c(Br)c1 | 31
54 | Cc1ccc(C)c2oc(-c3ccc(-c4ccc(C(=O)O)cc4Cl)[nH]3)cc12 | 23
55 | COc1cc(C(=O)O)ccc1-c1ccc(-c2cc3c(C)ccc(C)c3o2)[nH]1 | 47
56 | CC1=C(/C=C/C(C)=C/C=C/C(C)=C/C(=O)O)C(C)(C)CCC1 [TRETINOIN] | 1

experiment: Compound was evaluated for its inhibition of LPS-induced mouse B-lymphocyte proliferation. The result is expressed as relative IC50 i.e., IC50 of compound / All Trans Retinoic Acid IC50; assay type: functional

Row | Structure (SMILES) | Relative IC50
57 | O=C(O)c1ccc(-c2ccc(-c3cc4c(Cl)ccc(Cl)c4o3)[nH]2)cc1 | 1.3
58 | Cc1ccc(C)c2oc(-c3ccc(-c4ccc(C(=O)O)cc4)[nH]3)cc12 | 0.76
59 | CC1=C(/C=C/C(C)=C/C=C/C(C)=C/C(=O)O)C(C)(C)CCC1 [TRETINOIN] | 0.65
